Columns and labels:
[1] = test system: isolated cardiac mitochondria; assay: Cardiac mitochondrial phospholipid fatty acid composition by gas chromatography; format: in vivo, male Wistar rats; conditions: Series 1, 8 weeks diet, mean ± SEM; for Mitochondrial phospholipid C16:0: n = 7-8/group; for Mitochondrial phospholipid C20:3n6 / Mitochondrial phospholipid C20:5n3: BQL in control; for Mitochondrial phospholipid C22:6n3: DHA; for Mitochondrial phospholipid C20:5n3: EPA; for Mitochondrial phospholipid C20:4n6: arachidonic acid (ARA)
Protocol: (§1) Experimental Design: The animal protocol was conducted according to the Guideline for the Care and Use of Laboratory Animals (NIH publication 85-23) and was approved by the University of Maryland School of Medicine Institutional Animal Care and Use Committee. Investigators were blinded to treatment when measurements were performed. The animals were maintained on a reverse 12-h light-dark cycle and all procedures were performed in the fed state between 3 and 6 h from the start of the dark phase. Two series of experiments were performed. In the initial studies (Series 1) male Wistar rats weighing 190-200 g were fed a standard low fat diet (CTRL) or modified standard diet containing DHA or EPA at 2.5% of total caloric intake, which corresponds to a human intake of approximately 5.5 g/day (calculated assuming an energy intake of 2000 kcal/day and 9 kcal/g of fat). The rats were maintained on the diet for 8 weeks. Following dietary treatment, rats were anesthetized with isoflurane, blood was drawn, and the heart was harvested for biochemical analysis and mitochondrial isolation. Plasma from these animals was analyzed for free fatty acids and triglyceride levels, and cardiac mitochondria for respiration, Ca^2+ retention capacity (an index of MPTP opening), VDAC and cyclophilin D, and membrane phospholipid composition as described below. Following completion of Series 1, a second series of animal studies (Series 2) were performed to assess mitochondrial swelling using a light scattering assay, and the effects of different respiratory substrates on Ca^2+ retention capacity in mitochondria from control and DHA supplemented rats. Animals were treated for 10 weeks and were fed either CTRL or DHA (2.5% of total caloric intake).
(§2) Mitochondrial Preparation: Mitochondria were isolated as previously described^228. LV tissue (400-500 mg) was minced and homogenized in 1:10 cold modified Chappel-Perry buffer (100 mM KCl, 50 mM MOPS, 5 mM MgSO4, 1 mM ATP, 1 mM EGTA, 2 mg/ml BSA), and the homogenates were centrifuged at 500×g. Subsequent centrifugation allowed for separation and purification of the subsarcolemmal mitochondria. The concentration of mitochondrial protein was measured by the Lowry method using bovine serum albumin as a standard.
(§3) Membrane Lipid Composition: Cardiac phospholipid fatty acid composition was assessed in a subset of animals from Series 1 (n=7-9/group) on isolated cardiac mitochondria homogenates by gas chromatography with a flame ionization detector according to a modification of the transesterification method as previously described^228. CL composition was assessed on isolated cardiac mitochondria by electrospray ionization mass spectrometry using 1,1′,2,2′-tetramyristoyl CL as an internal standard as previously described (n=9/group)^228,229, 230.

[2] = test system: isolated cardiac mitochondria; assay: Cardiac mitochondrial cardiolipin (CL) content and composition by electrospray ionization mass spectrometry; format: in vivo, male Wistar rats; conditions: for total CL content: Series 1, 8 weeks diet, CTRL 10.7±0.8, DHA vs CTRL p<0.08
Protocol: as §1, with “Following completion of Series 1, a second series of animal studies (Series 2) were performed to assess mitochondrial swelling using a light scattering assay, and the effects of different respiratory substrates on Ca^2+ retention capacity in mitochondria from control and DHA supplemented rats. Animals were treated for 10 weeks and were fed either CTRL or DHA (2.5% of total caloric intake).” left out
Mitochondrial Preparation: Mitochondria were isolated as previously described^228. […] The concentration of mitochondrial protein was measured by the Lowry method using bovine serum albumin as a standard.
as §3

[3] = test system: isolated cardiac mitochondria; assay: Mitochondrial respiration (oxygen consumption, Clark-type electrode); format: in vivo, male Wistar rats; conditions: for P:O: measurements without oligomycin; for RCR: ratio of State 3 to State 4 rate with oligomycin; for decrease of state 4 respiration / increase of RCR: pyruvate+malate, vs control, p<0.05; for decrease of state 4 respiration: absence and presence of oligomycin
Protocol: as §1, §2
Mitochondrial respiration: Mitochondrial oxygen consumption was measured using a Clark-type oxygen electrode (Qubit Systems, Ontario, Canada). Mitochondria (0.25 mg protein) were suspended in 0.5 ml solution consisting of 100 mM KCl, 50 mM MOPS, 5 mM KH2PO4, 1 mM EGTA, and 0.5 mg fatty acid-free bovine serum albumin, at pH 7.4 and 37° C. State 3 (ADP-stimulated) and state 4 (non-phosphorylating) respiration were measured with glutamate+malate (10 and 5 mM, respectively), pyruvate+malate (10 and 5 mM, respectively) and palmitoylcarnitine+malate (40 μM and 5 mM, respectively) to assess respiration through complex I-IV, while succinate+rotenone (10 mM and 7.5 μM, respectively), were used to assess respiration through complex II-IV of the ETC exclusively. State 4 respiration was also measured in the presence of oligomycin to inhibit the mitochondrial ATP synthase.

[4] = test system: mitochondrial permeability transition pore (MPTP); assay: Ca2+ retention capacity (index of MPTP opening) in mitochondria from diet-treated rats, Series 1; format: in vivo, male Wistar rats
Protocol: as §1, §2

VDAC1 = assay: Western blot of isolated mitochondria, densitometry; format: in vivo, male Wistar rats; conditions: CTRL 1.00 ± 0.13
Protocol: (§4) Metabolic and Biochemical Parameters: Free fatty acids and triglycerides were assessed in the plasma using commercially available kits (Wako, Richmond, Va.). Mitochondrial proteins were separated by electrophoresis in 4-12% NuPage gels, transferred onto a nitrocellulose membrane, and incubated with specific antibodies to cyclophilin D and voltage-dependent anion channel (VDAC) (1:10,000 and 1:5000, respectively, both from Mitosciences, Eugene, Oreg.). Fluorescence-conjugated secondary antibodies (IRDye 800, 1:10,000; LI-COR Bioscience) were used for incubation before the membranes were scanned with Odyssey® infrared imaging system (LI-COR Bioscience). The digitized image was analyzed with Odyssey® software.

VDAC2 = assay: as above; format: in vivo, male Wistar rats; conditions: CTRL 1.00 ± 0.15
Protocol: as §4

cyclophilin D = assay: as above; format: in vivo, male Wistar rats; conditions: CTRL 1.00 ± 0.08
Protocol: as §4

[5] = Plasma free fatty acids and triglycerides after dietary supplementation (Series 1); format: in vivo, male Wistar rats; conditions: 2.5% of caloric intake, 8 weeks, FIG. 7
Protocol: as §1, with “Following dietary treatment, rats were anesthetized with isoflurane, blood was drawn, and the heart was harvested for biochemical analysis and mitochondrial isolation.” left out, “Following completion of Series 1, a second series of animal studies (Series 2) were performed to assess mitochondrial swelling using a light scattering assay, and the effects of different respiratory substrates on Ca^2+ retention capacity in mitochondria from control and DHA supplemented rats. Animals were treated for 10 weeks and were fed either CTRL or DHA (2.5% of total caloric intake).” left out
Metabolic and Biochemical Parameters: Free fatty acids and triglycerides were assessed in the plasma using commercially available kits (Wako, Richmond, Va.). […] The digitized image was analyzed with Odyssey® software.

tumor necrosis factor = molecular target: T1, tumor necrosis factor (Homo sapiens, UniProt P01375); conditions: direct cytokine blockade; cited from earlier work
T1 construct: host or cells: heart-failure patients
T1 sequence (P01375 77-233 limits assumed): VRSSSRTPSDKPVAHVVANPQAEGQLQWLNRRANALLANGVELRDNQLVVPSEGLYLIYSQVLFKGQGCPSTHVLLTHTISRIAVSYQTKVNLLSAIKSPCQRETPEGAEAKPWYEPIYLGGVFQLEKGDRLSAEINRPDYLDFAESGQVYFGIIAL

[6] = glutamate + malate, without CsA, CTRL 83.0±8.7
[7] = mitochondria of diet group with addition of 100 nM CsA

CC/C=C\C/C=C\C/C=C\C/C=C\C/C=C\C/C=C\CCC(=O)O [DHA, docosahexaenoic acid]
Mitochondrial phospholipid C18:0 [1]: 18.9 ± 0.5 molar percent of total phospholipid fatty acid | Mitochondrial phospholipid C18:1n7 [1]: 3.7 ± 0.2 molar percent of total phospholipid fatty acid | Mitochondrial phospholipid C18:1n9 [1]: 13.0 ± 1.0 molar percent of total phospholipid fatty acid | Mitochondrial phospholipid C18:2n6 [1]: 23.1 ± 1.0 molar percent of total phospholipid fatty acid | Mitochondrial phospholipid Total ω-3 PUFA [1]: 19.2 ± 0.5 molar percent of total phospholipid fatty acid | Mitochondrial phospholipid C16:0 [1]: 13.3 ± 0.5 molar percent of total phospholipid fatty acid | Mitochondrial phospholipid C20:3n6 [1]: 1.6 ± 0.2 molar percent of total phospholipid fatty acid | Mitochondrial phospholipid C22:6n3 [1]: 14.8 ± 0.6 molar percent of total phospholipid fatty acid | Mitochondrial phospholipid C20:5n3 [1]: 4.4 ± 0.3 molar percent of total phospholipid fatty acid | Mitochondrial phospholipid C20:4n6 [1]: 5.7 ± 0.2 molar percent of total phospholipid fatty acid | total CL content [2]: 13.2±0.8 nmols/mg mito prot | State 4 (+ oligomycin) respiration ([3]; Glutamate + Malate): 17.2 ± 2.0 ng atoms O · mg^−1 · min^−1 | State 4 (− oligomycin) respiration ([3]; Glutamate + Malate): 35.3 ± 2.9 ng atoms O · mg^−1 · min^−1 | State 3 respiration ([3]; Glutamate + Malate, mean ± SEM): 115.2 ± 16.2 ng atoms O · mg^−1 · min^−1 | P:O ([3]; Glutamate + Malate): 2.37 ± 0.18 | RCR ([3]; Glutamate + Malate): 7.0 ± 0.9 | State 3 respiration ([3]; Palmityl-carnitine + Malate): 265.7 ± 34.4 ng atoms O · mg^−1 · min^−1 | State 4 (+ oligomycin) respiration ([3]; Palmityl-carnitine + Malate): 24.9 ± 2.6 ng atoms O · mg^−1 · min^−1 | State 4 (− oligomycin) respiration ([3]; Palmityl-carnitine + Malate): 42.6 ± 1.9 ng atoms O · mg^−1 · min^−1 | P:O ([3]; Palmityl-carnitine + Malate): 2.50 ± 0.12 | RCR ([3]; Palmityl-carnitine + Malate): 11.4 ± 1.8 | State 3 respiration ([3]; Pyruvate + Malate): 240.4 ± 28.7 ng atoms O · mg^−1 · min^−1 | State 4 (+ oligomycin) respiration ([3]; Pyruvate + Malate): 34.8 ± 4.2 ng atoms O · mg^−1 · min^−1 | State 4 (− oligomycin) respiration ([3]; Pyruvate + Malate): 54.0 ± 3.2 ng atoms O · mg^−1 · min^−1 | P:O ([3]; Pyruvate + Malate): 2.48 ± 0.09 | RCR ([3]; Pyruvate + Malate): 7.7 ± 1.0 | State 3 respiration ([3]; Succinate + Rotenone): 325.2 ± 19.6 ng atoms O · mg^−1 · min^−1 | State 4 (+ oligomycin) respiration ([3]; Succinate + Rotenone): 84.7 ± 10.1 ng atoms O · mg^−1 · min^−1 | State 4 (− oligomycin) respiration ([3]; Succinate + Rotenone): 99.3 ± 7.0 ng atoms O · mg^−1 · min^−1 | P:O ([3]; Succinate + Rotenone): 1.48 ± 0.06 | RCR ([3]; Succinate + Rotenone): 4.1 ± 0.4 | decrease of state 4 respiration [3]: 30% | increase of RCR [3]: 70% | Ca2+ required to elicit MPTP [4, 6]: 134.9±11.4 nmol Ca^2+/mg mito prot | Ca2+ required to elicit MPTP [4, 7]: 147.0±17.3 nmol Ca^2+/mg mito prot | VDAC 1 protein, densitometry (VDAC1): 1.03 ± 0.22 | VDAC 2 protein, densitometry (VDAC2): 1.02 ± 0.20 | Cyclophilin D protein, densitometry (cyclophilin D): 1.01 ± 0.10

CC/C=C\C/C=C\C/C=C\C/C=C\C/C=C\CCCC(=O)O [EPA, eicosapentanoic acid]
plasma free fatty acid concentration compared to CTRL [5]: lowered | plasma triglyceride concentration compared to CTRL [5]: lowered | Mitochondrial phospholipid C18:0 [1]: 19.8 ± 0.8 molar percent of total phospholipid fatty acid | Mitochondrial phospholipid C18:1n7 [1]: 4.2 ± 0.2 molar percent of total phospholipid fatty acid | Mitochondrial phospholipid C18:1n9 [1]: 11.8 ± 1.0 molar percent of total phospholipid fatty acid | Mitochondrial phospholipid C18:2n6 [1]: 22.4 ± 0.8 molar percent of total phospholipid fatty acid | Mitochondrial phospholipid Total ω-3 PUFA [1]: 14.3 ± 0.3 molar percent of total phospholipid fatty acid | Mitochondrial phospholipid C16:0 [1]: 10.8 ± 0.6 molar percent of total phospholipid fatty acid | Mitochondrial phospholipid C16:1 ([1]; BQL = below the quantifiable limit (limit of detection = 0.41%)): 4.5 ± 1.8 molar percent of total phospholipid fatty acid | Mitochondrial phospholipid C20:3n6 [1]: 1.1 ± 0.2 molar percent of total phospholipid fatty acid | Mitochondrial phospholipid C22:6n3 [1]: 8.3 ± 0.2 molar percent of total phospholipid fatty acid | Mitochondrial phospholipid C20:5n3 [1]: 6.0 ± 0.2 molar percent of total phospholipid fatty acid | Mitochondrial phospholipid C20:4n6 [1]: 9.8 ± 0.8 molar percent of total phospholipid fatty acid | total CL content [2]: 11.1±0.8 nmols/mg mito prot | CL species containing one ARA and three linoleic acid moieties (ARA1L3CL) ([2]; Series 1, compared to CTRL, FIG. 9): decrease | State 4 (+ oligomycin) respiration ([3]; Glutamate + Malate): 19.1 ± 3.3 ng atoms O · mg^−1 · min^−1 | State 4 (− oligomycin) respiration ([3]; Glutamate + Malate): 32.1 ± 4.8 ng atoms O · mg^−1 · min^−1 | State 3 respiration ([3]; Glutamate + Malate, mean ± SEM): 119.3 ± 13.4 ng atoms O · mg^−1 · min^−1 | P:O ([3]; Glutamate + Malate): 2.76 ± 0.23 | RCR ([3]; Glutamate + Malate): 7.0 ± 1.0 | State 3 respiration ([3]; Palmityl-carnitine + Malate): 243.7 ± 28.1 ng atoms O · mg^−1 · min^−1 | State 4 (+ oligomycin) respiration ([3]; Palmityl-carnitine + Malate): 29.7 ± 3.8 ng atoms O · mg^−1 · min^−1 | State 4 (− oligomycin) respiration ([3]; Palmityl-carnitine + Malate): 59.4 ± 7.0 ng atoms O · mg^−1 · min^−1 | P:O ([3]; Palmityl-carnitine + Malate): 2.57 ± 0.14 | RCR ([3]; Palmityl-carnitine + Malate): 9.5 ± 1.8 | State 3 respiration ([3]; Pyruvate + Malate): 221.2 ± 31.0 ng atoms O · mg^−1 · min^−1 | State 4 (+ oligomycin) respiration ([3]; Pyruvate + Malate): 43.3 ± 5.2 ng atoms O · mg^−1 · min^−1 | State 4 (− oligomycin) respiration ([3]; Pyruvate + Malate): 63.5 ± 6.4 ng atoms O · mg^−1 · min^−1 | P:O ([3]; Pyruvate + Malate): 2.44 ± 0.30 | RCR ([3]; Pyruvate + Malate): 5.1 ± 0.3 | State 3 respiration ([3]; Succinate + Rotenone): 307.2 ± 37.1 ng atoms O · mg^−1 · min^−1 | State 4 (+ oligomycin) respiration ([3]; Succinate + Rotenone): 80.3 ± 11.7 ng atoms O · mg^−1 · min^−1 | State 4 (− oligomycin) respiration ([3]; Succinate + Rotenone): 102.1 ± 11.5 ng atoms O · mg^−1 · min^−1 | P:O ([3]; Succinate + Rotenone): 1.48 ± 0.08 | RCR ([3]; Succinate + Rotenone): 4.1 ± 0.5 | decrease of state 4 respiration [3]: no effect | increase of RCR [3]: no effect | Ca2+ required to elicit MPTP [4, 6]: 80.8±4.9 nmol Ca^2+/mg mito prot | Ca2+ required to elicit MPTP [4, 7]: 130.6±12.8 nmol Ca^2+/mg mito prot | VDAC 1 protein, densitometry (VDAC1): 0.87 ± 0.16 | VDAC 2 protein, densitometry (VDAC2): 0.94 ± 0.17 | Cyclophilin D protein, densitometry (cyclophilin D): 1.00 ± 0.08

ETANERCEPT
efficacy in HF patients (tumor necrosis factor): not effective
